{
  "source": "ChEMBL document CHEMBL3046949",
  "about": "“New molecular scaffolds for the design of Alzheimers acetylcholinesterase inhibitors identified using ligand- and receptor-based virtual screening” (Med Chem Res, 2013)",
  "data": [
    {"molecular_target": "T1, Acetylcholinesterase (Rattus norvegicus, UniProt P37136)", "T1 sequence (P37136 whole entry)": "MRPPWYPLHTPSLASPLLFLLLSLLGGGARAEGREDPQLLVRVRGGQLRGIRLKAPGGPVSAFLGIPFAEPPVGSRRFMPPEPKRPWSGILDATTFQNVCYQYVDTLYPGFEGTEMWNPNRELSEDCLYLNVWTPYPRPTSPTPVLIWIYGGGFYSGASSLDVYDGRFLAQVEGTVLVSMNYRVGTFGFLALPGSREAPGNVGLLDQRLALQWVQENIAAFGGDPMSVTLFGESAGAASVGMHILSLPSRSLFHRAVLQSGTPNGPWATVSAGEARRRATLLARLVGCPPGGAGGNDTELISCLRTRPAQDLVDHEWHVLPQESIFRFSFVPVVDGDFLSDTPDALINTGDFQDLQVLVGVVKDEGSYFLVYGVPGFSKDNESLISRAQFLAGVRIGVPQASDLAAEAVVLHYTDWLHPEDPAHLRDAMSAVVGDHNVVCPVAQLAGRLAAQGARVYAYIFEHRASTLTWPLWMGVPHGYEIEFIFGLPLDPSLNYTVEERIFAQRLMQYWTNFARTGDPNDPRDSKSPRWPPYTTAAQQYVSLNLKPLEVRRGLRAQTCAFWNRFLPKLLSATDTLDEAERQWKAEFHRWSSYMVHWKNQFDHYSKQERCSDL", "units": {"IC50": "nM"}, "description": "Inhibition of acetylcholinesterase in Rattus norvegicus (rat) cortex by Ellman method", "values": [
      {"smiles": "CCN(CC)Cc1cccc(/C=C2\\Cc3cc(OC)c(OC)cc3C2=O)c1", "IC50": 447},
      {"smiles": "COc1cc2c(cc1OC)C(=O)/C(=C/c1cccc(CN3CCCC3)c1)C2", "IC50": 234},
      {"smiles": "COc1cc2c(cc1OC)C(=O)C(Cc1ccc(CN3CCCC3)cc1)C2", "note": "(stereo not drawn)", "IC50": 155},
      {"smiles": "COc1cc2c(cc1OC)C(=O)/C(=C/c1cccc(CN3CCCCC3)c1)C2", "IC50": 162},
      {"smiles": "CCN(C)Cc1ccc(/C=C2\\Cc3cc(OC)c(OC)cc3C2=O)cc1", "IC50": 263},
      {"smiles": "COc1cc2c(cc1OC)C(=O)C(Cc1ccc(CN3CCCCC3)cc1)C2", "note": "(stereo not drawn)", "IC50": 123},
      {"smiles": "COc1cc2c(cc1OC)C(=O)/C(=C/c1ccc(CN3CCCCC3)cc1)C2", "IC50": 102}
    ]},
    {"molecular_target": "Acetylcholinesterase (Homo sapiens, UniProt P22303)", "sequence (P22303 whole entry)": "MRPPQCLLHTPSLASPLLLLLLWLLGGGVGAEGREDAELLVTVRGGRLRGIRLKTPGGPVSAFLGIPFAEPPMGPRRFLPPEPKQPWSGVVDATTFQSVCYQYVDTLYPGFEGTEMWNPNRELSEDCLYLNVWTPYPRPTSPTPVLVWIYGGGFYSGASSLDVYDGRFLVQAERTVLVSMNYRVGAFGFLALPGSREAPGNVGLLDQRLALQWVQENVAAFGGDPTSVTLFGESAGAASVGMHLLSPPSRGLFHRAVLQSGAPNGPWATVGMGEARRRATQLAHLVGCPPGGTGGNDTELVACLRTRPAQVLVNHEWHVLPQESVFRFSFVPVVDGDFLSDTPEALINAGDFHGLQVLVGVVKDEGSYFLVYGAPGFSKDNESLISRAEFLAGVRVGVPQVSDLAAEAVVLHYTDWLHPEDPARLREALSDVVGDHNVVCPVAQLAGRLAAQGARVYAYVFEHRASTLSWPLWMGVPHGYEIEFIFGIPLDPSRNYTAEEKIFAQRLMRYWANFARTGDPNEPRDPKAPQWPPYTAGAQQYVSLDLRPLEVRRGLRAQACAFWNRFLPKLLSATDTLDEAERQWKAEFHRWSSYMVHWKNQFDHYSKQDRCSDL", "units": {"Ki": "nM"}, "description": "Binding affinity to acetylcholinesterase (unknown origin)", "values": [
      {"smiles": "COc1cc2c(cc1OC)C(=O)C(Oc1cccc(C(C)N3CCCC3)c1)C2", "note": "(stereo not drawn)", "Ki": 138},
      {"smiles": "N/C(=N\\OC(=O)c1cnn(-c2ccc([N+](=O)[O-])cc2)c1C(F)(F)F)c1ccc(C(F)(F)F)cc1", "Ki": 2070},
      {"smiles": "CCN(C)Cc1cccc(/C=C2\\Cc3cc(OC)c(OC)cc3C2=O)c1", "Ki": 235},
      {"smiles": "COc1cc2c(cc1OC)C(=O)/C(=C/c1cccc(CN(C)C)c1)C2", "Ki": 62.2},
      {"smiles": "CCN(CC)Cc1ccc(/C=C2\\Cc3cc(OC)c(OC)cc3C2=O)cc1", "Ki": 453},
      {"smiles": "COc1cc2c(cc1OC)C(=O)/C(=C/c1ccc(CN(C)C)cc1)C2", "Ki": 617},
      {"smiles": "O=C(CN1CCN(Cc2ccccc2)CC1)Nc1ccc(C(F)(F)F)cc1Cl", "Ki": 47.3},
      {"smiles": "CCN(CC)Cc1cccc(OC2Cc3cc(OC)c(OC)cc3C2=O)c1", "note": "(stereo not drawn)", "Ki": 1590},
      {"smiles": "CSc1cccc(/N=C2\\NC(=O)C(CC(=O)Nc3ccc(F)c(F)c3)S2)c1", "note": "(stereo not drawn)", "Ki": 130},
      {"smiles": "COc1cc2c(cc1OC)C(=O)C(Oc1ccc(CN(C)C)cc1)C2", "note": "(stereo not drawn)", "Ki": 209},
      {"smiles": "CCN(CC)Cc1cccc(CC2Cc3cc(OC)c(OC)cc3C2=O)c1", "note": "(stereo not drawn)", "Ki": 21.7},
      {"smiles": "O=C(Nc1ccc(OC(F)(F)F)cc1)OC1CN(C(c2ccccc2)c2ccccc2)C1", "Ki": 22.8},
      {"smiles": "CCN(CC)Cc1ccc(OC2Cc3cc(OC)c(OC)cc3C2=O)cc1", "note": "(stereo not drawn)", "Ki": 1340},
      {"smiles": "CCN(C)Cc1ccc(CC2Cc3cc(OC)c(OC)cc3C2=O)cc1", "note": "(stereo not drawn)", "Ki": 918},
      {"smiles": "CC(C)(C)c1ccc(/C(N)=N/OC(=O)c2cnn(-c3ccc([N+](=O)[O-])cc3)c2C(F)(F)F)cc1", "Ki": 521},
      {"smiles": "O=C(CC1S/C(=N/c2ccc(C3CCCCC3)cc2)NC1=O)Nc1ccc(OC(F)(F)F)cc1", "note": "(stereo not drawn)", "Ki": 897},
      {"smiles": "COc1cc2c(cc1OC)C(=O)C(Oc1ccc(CN3CCCCC3)cc1)C2", "note": "(stereo not drawn)", "Ki": 403},
      {"smiles": "COc1cc2c(cc1OC)C(=O)C(Oc1ccc(CN3CCN(C)CC3)cc1)C2", "note": "(stereo not drawn)", "Ki": 69.5},
      {"smiles": "COc1cc2c(cc1OC)C(=O)C(Oc1ccc(CN3CCOCC3)cc1)C2", "note": "(stereo not drawn)", "Ki": 514},
      {"smiles": "O=C(NC1CCN(Cc2ccccc2)CC1)c1ccc2c(c1)OCCCO2", "Ki": 95.3},
      {"smiles": "COc1cc2c(cc1OC)C(=O)C(Oc1ccc(CN3CCCC3)cc1)C2", "note": "(stereo not drawn)", "Ki": 257},
      {"smiles": "COc1cc2c(cc1OC)C(=O)C(Oc1cccc(C(C)N3CCOCC3)c1)C2", "note": "(stereo not drawn)", "Ki": 118},
      {"smiles": "COc1cc2c(cc1OC)C(=O)C(Oc1cccc(C(C)N3CCN(C)CC3)c1)C2", "note": "(stereo not drawn)", "Ki": 77.7},
      {"smiles": "N/C(=N\\OC(=O)c1cnn(-c2ccc([N+](=O)[O-])cc2)c1C(F)(F)F)c1ccc(Cl)cc1", "Ki": 2350},
      {"smiles": "CCN(CC)C(C)c1ccc(OC2Cc3cc(OC)c(OC)cc3C2=O)cc1", "note": "(stereo not drawn)", "Ki": 1330},
      {"smiles": "O=[N+]([O-])c1ccc(OCC(O)CN2CCCN(c3nc4ccc(Cl)cc4s3)CC2)cc1", "note": "(stereo not drawn)", "Ki": 263},
      {"smiles": "CCN(CC)Cc1cccc(/C=C2\\Cc3cc(OC)c(OC)cc3C2=O)c1", "Ki": 237},
      {"smiles": "COc1cc2c(cc1OC)C(=O)/C(=C/c1cccc(CN3CCCC3)c1)C2", "Ki": 127},
      {"smiles": "COc1cc2c(cc1OC)C(=O)C(Cc1ccc(CN3CCCC3)cc1)C2", "note": "(stereo not drawn)", "Ki": 773},
      {"smiles": "COc1cc2c(cc1OC)C(=O)C(Oc1cccc(C(C)N(C)C)c1)C2", "note": "(stereo not drawn)", "Ki": 400},
      {"smiles": "COc1cc2c(cc1OC)C(=O)/C(=C/c1cccc(CN3CCCCC3)c1)C2", "Ki": 70.9},
      {"smiles": "CCN(CC)Cc1ccc(CC2Cc3cc(OC)c(OC)cc3C2=O)cc1", "note": "(stereo not drawn)", "Ki": 1040},
      {"smiles": "CCN(C)Cc1ccc(/C=C2\\Cc3cc(OC)c(OC)cc3C2=O)cc1", "Ki": 920},
      {"smiles": "COc1cc2c(cc1OC)C(=O)C(Oc1ccc(C(C)N3CCCC3)cc1)C2", "note": "(stereo not drawn)", "Ki": 403},
      {"smiles": "CCN(CC)C(C)c1cccc(OC2Cc3cc(OC)c(OC)cc3C2=O)c1", "note": "(stereo not drawn)", "Ki": 865},
      {"smiles": "COc1cc2c(cc1OC)C(=O)C(Oc1ccc(C(C)N(C)C)cc1)C2", "note": "(stereo not drawn)", "Ki": 543},
      {"smiles": "COc1cc2c(cc1OC)C(=O)C(Oc1cccc(C(C)N3CCCCC3)c1)C2", "note": "(stereo not drawn)", "Ki": 38.2},
      {"smiles": "CC(CN1CCN(Cc2ccccc2)CC1)N(C(=O)c1cccc([N+](=O)[O-])c1)c1ccccn1", "note": "(stereo not drawn)", "Ki": 61.4},
      {"smiles": "COc1cc2c(cc1OC)C(=O)C(Oc1cccc(CN3CCCCC3)c1)C2", "note": "(stereo not drawn)", "Ki": 266},
      {"smiles": "COc1cc2c(cc1OC)C(=O)C(Cc1cccc(CN3CCCC3)c1)C2", "note": "(stereo not drawn)", "Ki": 22.3},
      {"smiles": "COc1cc2c(cc1OC)C(=O)C(Cc1cccc(CN(C)C)c1)C2", "note": "(stereo not drawn)", "Ki": 525},
      {"smiles": "COc1cc2c(cc1OC)C(=O)C(Oc1cccc(CN(C)C)c1)C2", "note": "(stereo not drawn)", "Ki": 1000},
      {"smiles": "O=c1c(Cl)c(N2CCN(c3ccc(C(F)(F)F)cn3)CC2)cnn1-c1c(Cl)cc(C(F)(F)F)cc1Cl", "Ki": 2870},
      {"smiles": "CCN(C)Cc1cccc(CC2Cc3cc(OC)c(OC)cc3C2=O)c1", "note": "(stereo not drawn)", "Ki": 507},
      {"smiles": "COc1cc2c(cc1OC)C(=O)C(Oc1cccc(CN3CCN(C)CC3)c1)C2", "note": "(stereo not drawn)", "Ki": 62.1},
      {"smiles": "O=C(Nc1ccc(OC(F)(F)F)cc1)N1CCCN(CCc2ccccc2)CC1", "Ki": 241},
      {"smiles": "Cc1c(S(=O)(=O)c2ccc(Cl)cc2)csc1C(=O)NC1CCN(Cc2ccccc2)CC1", "Ki": 21.3},
      {"smiles": "COc1cc2c(cc1OC)C(=O)C(Cc1ccc(CN3CCCCC3)cc1)C2", "note": "(stereo not drawn)", "Ki": 73.8},
      {"smiles": "COc1cc2c(cc1OC)C(=O)C(Oc1ccc(C(C)N3CCCCC3)cc1)C2", "note": "(stereo not drawn)", "Ki": 106},
      {"smiles": "COc1cc2c(cc1OC)C(=O)/C(=C/c1ccc(CN3CCCCC3)cc1)C2", "Ki": 95.2},
      {"smiles": "COc1cc2c(cc1OC)C(=O)/C(=C/c1ccc(CN3CCCC3)cc1)C2", "Ki": 198},
      {"smiles": "COc1cc2c(cc1OC)C(=O)C(Cc1cccc(CN3CCCCC3)c1)C2", "note": "(stereo not drawn)", "Ki": 59.3},
      {"smiles": "COc1cc2c(cc1OC)C(=O)C(Oc1ccc(C(C)N3CCN(C)CC3)cc1)C2", "note": "(stereo not drawn)", "Ki": 228},
      {"smiles": "COc1cc2c(cc1OC)C(=O)C(Oc1cccc(CN3CCOCC3)c1)C2", "note": "(stereo not drawn)", "Ki": 793},
      {"smiles": "COc1cc2c(cc1OC)C(=O)C(Oc1ccc(C(C)N3CCOCC3)cc1)C2", "note": "(stereo not drawn)", "Ki": 217},
      {"smiles": "COc1ccc(C(=O)NC2CCN(Cc3c(F)cccc3Cl)CC2)cc1OC", "Ki": 54.8}
    ]}
  ]
}
